Assay results reported in patent US20220119354A1, “DIAMINO-SUBSTITUTED PYRIDINES AND PYRIMIDINES AS HERBICIDES” (FMC Corporation, priority 2019, published 2022).

Experiments:
Assay type in all cases: in vivo
[1] = tested on: barnyardgrass (Echinochloa crus-galli); assay: Test A preemergence, barnyardgrass; conditions: 0 to 100 scale, 0 is no effect, 100 is complete control
How it was run: (§1)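 Seeds sown in loam–sand blend received a directed soil spray of test chemical in non-phytotoxic solvent with surfactant (preemergence); postemergence plants at 2–10 cm, one- to two-leaf stage, were sprayed with the same formulation. Injury rated visually versus untreated controls after ~10 d in greenhouse, 0–100 scale.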

[2] = tested on: ragweed (common ragweed, Ambrosia elatior); assay: Test A preemergence, ragweed; conditions: 0 to 100 scale, 0 is no effect, 100 is complete control
How it was run: as §1

[3] = tested on: ryegrass, Italian (Lolium multiflorum); assay: Test A preemergence, Italian ryegrass; conditions: 0 to 100 scale, 0 is no effect, 100 is complete control
How it was run: as §1

[4] = tested on: foxtail, giant (Setaria faberii); assay: Test A preemergence, giant foxtail; conditions: 0 to 100 scale, 0 is no effect, 100 is complete control
How it was run: as §1

[5] = tested on: pigweed (Amaranthus retroflexus); assay: Test A preemergence, pigweed; conditions: 0 to 100 scale, 0 is no effect, 100 is complete control
How it was run: as §1

[6] = tested on: barnyardgrass (Echinochloa crus-galli); assay: Test A postemergence, barnyardgrass; conditions: Echinochloa crus-galli, post-emergence, 240 h, 0 to 100 scale, 0 no effect, 100 complete control, read-out: Plant response rating, Barnyardgrass; for pest or weed control at 125 g/ha: 125 g ai/ha; for pest or weed control at 500 g/ha: 500 g ai/ha
How it was run: as §1

[7] = tested on: kochia (Kochia scoparia); assay: Test A postemergence, kochia; conditions: Bassia scoparia, post-emergence, 240 h, 0 to 100 scale, 0 no effect, 100 complete control, read-out: Plant response rating, Kochia; for pest or weed control at 125 g/ha: 125 g ai/ha; for pest or weed control at 500 g/ha: 500 g ai/ha
How it was run: as §1

[8] = tested on: ragweed (common ragweed, Ambrosia elatior); assay: Test A postemergence, ragweed; conditions: Ambrosia artemisiifolia, post-emergence, 240 h, 0 to 100 scale, 0 no effect, 100 complete control, read-out: Plant response rating, Ragweed; for pest or weed control at 125 g/ha: 125 g ai/ha; for pest or weed control at 500 g/ha: 500 g ai/ha
How it was run: as §1

[9] = tested on: pigweed (Amaranthus retroflexus); assay: Test A postemergence, pigweed; conditions: Amaranthus retroflexus, post-emergence, 240 h, 0 to 100 scale, 0 no effect, 100 complete control, read-out: Plant response rating, Pigweed; for pest or weed control at 125 g/ha: 125 g ai/ha; for pest or weed control at 500 g/ha: 500 g ai/ha
How it was run: as §1

[10] = tested on: wheat (Triticum aestivum); assay: Test A postemergence, wheat; conditions: Triticum aestivum, post-emergence, 240 h, 0 to 100 scale, 0 no effect, 100 complete control, read-out: Plant response rating, Wheat; for plant injury at 125 g/ha: 125 g ai/ha; for plant injury at 500 g/ha: 500 g ai/ha
How it was run: as §1

[11] = tested on: corn (Zea mays); assay: Test A postemergence, corn; conditions: Zea mays, post-emergence, 240 h, 0 to 100 scale, 0 no effect, 100 complete control; for Corn plant response rating (crop injury, 0 = no effect, 100 = complete kill) at 125 g/ha: 125 g ai/ha; for Corn plant response rating (crop injury, 0 = no effect, 100 = complete kill) at 500 g/ha: 500 g ai/ha
How it was run: as §1

[12] = tested on: blackgrass (Alopecurus myosuroides); assay: Test A postemergence, blackgrass; conditions: Alopecurus myosuroides, post-emergence, 240 h, 0 to 100 scale, 0 no effect, 100 complete control, read-out: Plant response rating, Blackgrass; for pest or weed control at 125 g/ha: 125 g ai/ha; for pest or weed control at 500 g/ha: 500 g ai/ha
How it was run: as §1

[13] = tested on: galium (catchweed bedstraw, Galium aparine); assay: Test A postemergence, galium; conditions: Galium, post-emergence, 240 h, 0 to 100 scale, 0 no effect, 100 complete control, read-out: Plant response rating, Galium; for pest or weed control at 125 g/ha: 125 g ai/ha; for pest or weed control at 500 g/ha: 500 g ai/ha
How it was run: as §1

[14] = tested on: rice (Oryza sativa); assay: Test B flooded paddy test, rice; conditions: Oryza sativa, 360 h; Flood, 250 g ai/ha, applied to paddy water, 2-leaf stage, visual evaluation after 13 to 15 d; read-out: Plant response rating, Rice (0 to 100 scale, 0 is no effect, 100 is complete control)
How it was run: (§2)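 Each response is a visual 0–100 rating made against untreated controls, where 0 is no effect and 100 is complete control; a dash marks no result. Compound was dosed into 3 cm paddy water over 2-leaf plants, assessed after 13 to 15 d.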

[15] = tested on: sedge, umbrella (small-flower umbrella sedge, Cyperus difformis); assay: Test B flooded paddy test, umbrella sedge; conditions: Cyperus difformis, 360 h; Flood, 250 g ai/ha, applied to paddy water, 2-leaf stage, visual evaluation after 13 to 15 d; read-out: Plant response rating, Sedge, Umbrella (0 to 100 scale, 0 is no effect, 100 is complete control)
How it was run: as §2

[16] = tested on: ducksalad (Heteranthera limosa); assay: Test B flooded paddy test, ducksalad; conditions: Heteranthera limosa, 360 h; Flood, 250 g ai/ha, applied to paddy water, 2-leaf stage, visual evaluation after 13 to 15 d; read-out: Plant response rating, Ducksalad (0 to 100 scale, 0 is no effect, 100 is complete control)
How it was run: as §2

[17] = tested on: barnyardgrass (Echinochloa crus-galli); assay: Test B flooded paddy test, barnyardgrass; conditions: Echinochloa crus-galli, 360 h; Flood, 250 g ai/ha, applied to paddy water, 2-leaf stage, visual evaluation after 13 to 15 d; read-out: Plant response rating, Barnyardgrass (0 to 100 scale, 0 is no effect, 100 is complete control)
How it was run: as §2

Compound | Barnyardgrass plant response rating ([1]; 125 g ai/ha) | Barnyardgrass plant response rating ([1]; 500 g ai/ha) | Ragweed plant response rating ([2]; 125 g ai/ha) | Ragweed plant response rating ([2]; 500 g ai/ha) | Ryegrass, Italian plant response rating ([3]; 125 g ai/ha) | Ryegrass, Italian plant response rating ([3]; 500 g ai/ha) | Foxtail, Giant plant response rating ([4]; 125 g ai/ha) | Foxtail, Giant plant response rating ([4]; 500 g ai/ha) | Pigweed plant response rating ([5]; 125 g ai/ha) | Pigweed plant response rating ([5]; 500 g ai/ha) | pest or weed control at 125 g/ha [6] | pest or weed control at 500 g/ha [6] | pest or weed control at 125 g/ha [7] | pest or weed control at 500 g/ha [7] | pest or weed control at 125 g/ha [8] | pest or weed control at 500 g/ha [8] | pest or weed control at 125 g/ha [9] | pest or weed control at 500 g/ha [9] | plant injury at 125 g/ha [10] | plant injury at 500 g/ha [10] | also measured
C[C@@H](Nc1ncc(C(F)(F)F)c(N)n1)c1cc2c(F)cccc2s1 [Compound 61, N2-[(1R)-1-(4-fluorobenzo[b]thien-2-yl)ethyl]-5-(trifluoromethyl)-2,4-pyrimidinediamine] | 80 | 90 | 90 | 100 | 40 | 100 | 100 | 100 | 100 | 100 | 80% | 100% | 80% | 90% | 60% | 100% | 100% | 100% | 20% | 30% | Corn plant response rating (crop injury, 0 = no effect, 100 = complete kill) at 125 g/ha [11]: 10%; Corn plant response rating (crop injury, 0 = no effect, 100 = complete kill) at 500 g/ha [11]: 60%; pest or weed control at 125 g/ha [12]: 80%; pest or weed control at 500 g/ha [12]: 70%; pest or weed control at 125 g/ha [13]: 70%; pest or weed control at 500 g/ha [13]: 100%; plant injury at 250 g/ha [14]: 0%; pest or weed control at 250 g/ha [15]: 90%; pest or weed control at 250 g/ha [16]: 50%; pest or weed control at 250 g/ha [17]: 40%
C[C@@H](Nc1ncc(C(F)(F)F)c(N)n1)c1cc2cccc(F)c2o1 [Compound 71, N2-[(1R)-1-(7-fluoro-2-benzofuranyl)ethyl]-5-(trifluoromethyl)-2,4-pyrimidinediamine] | 70 | 100 | 100 | 100 | 20 | 80 | 90 | 100 | 100 | 100 | 30% | 100% | 90% | 90% | 80% | 90% | 100% | 100% | 0% | 0% | Corn plant response rating (crop injury, 0 = no effect, 100 = complete kill) at 125 g/ha [11]: 0%; Corn plant response rating (crop injury, 0 = no effect, 100 = complete kill) at 500 g/ha [11]: 40%; pest or weed control at 125 g/ha [12]: 0%; pest or weed control at 500 g/ha [12]: 50%; pest or weed control at 125 g/ha [13]: 80%; pest or weed control at 500 g/ha [13]: 90%; plant injury at 250 g/ha [14]: 0%; pest or weed control at 250 g/ha [15]: 0%; pest or weed control at 250 g/ha [16]: 0%; pest or weed control at 250 g/ha [17]: 0%
C[C@@H](Nc1ncc(C(F)(F)F)c(N)n1)c1cc2c(F)cccc2o1 [Compound 73, N2-[(1R)-1-(4-fluoro-2-benzofuranyl)ethyl]-5-(trifluoromethyl)-2,4-pyrimidinediamine] | 90 | 100 | 100 | 100 | 100 | 100 | 100 | 100 | 100 | 100 | 60% | 100% | 90% | 100% | 90% | 100% | 100% | 100% | 0% | 0% | Corn plant response rating (crop injury, 0 = no effect, 100 = complete kill) at 125 g/ha [11]: 30%; Corn plant response rating (crop injury, 0 = no effect, 100 = complete kill) at 500 g/ha [11]: 40%; pest or weed control at 125 g/ha [12]: 50%; pest or weed control at 500 g/ha [12]: 80%; pest or weed control at 125 g/ha [13]: 90%; pest or weed control at 500 g/ha [13]: 90%; plant injury at 250 g/ha [14]: 10%; pest or weed control at 250 g/ha [15]: 90%; pest or weed control at 250 g/ha [16]: 98%; pest or weed control at 250 g/ha [17]: 65%
C[C@@H](Nc1ncc(C(F)(F)F)c(N)n1)c1cc2cccc(F)c2s1 [Compound 75, N2-[(1R)-1-(7-fluorobenzo[b]thien-2-yl)ethyl]-5-(trifluoromethyl)-2,4-pyrimidinediamine] | 90 | 90 | 100 | 100 | 80 | 100 | 90 | 100 | 100 | 100 | 30% | 100% | 80% | 90% | 70% | 90% | 100% | 100% | 0% | 0% | Corn plant response rating (crop injury, 0 = no effect, 100 = complete kill) at 125 g/ha [11]: 0%; Corn plant response rating (crop injury, 0 = no effect, 100 = complete kill) at 500 g/ha [11]: 10%; pest or weed control at 125 g/ha [12]: 0%; pest or weed control at 500 g/ha [12]: 30%; pest or weed control at 125 g/ha [13]: 80%; pest or weed control at 500 g/ha [13]: 80%; plant injury at 250 g/ha [14]: 0%; pest or weed control at 250 g/ha [15]: 98%; pest or weed control at 250 g/ha [16]: 95%; pest or weed control at 250 g/ha [17]: 40%
